{"source": "patent US8961970B2", "about": "“Combination therapy” (Novartis AG, priority 2012, dated 2015)", "key": {"[1]": {"test_system": "Miapaca-2 cells", "test": "Cell proliferation / viability assay (CellTiter-Glo, dose matrix) in Miapaca-2 cells", "type": "cell-based", "protocol": "(§1) A cell proliferation assay was performed to investigate the activity of the combination of COMPOUND A and ANTIBODY A on Insulin-like Growth Factor 1 (IGF1)-induced proliferation of the KRAS mutant cell lines Miapaca-2 and AsPC-1. To evaluate the combination effect in a non-biased way, and to identify synergistic effects at different concentrations, the study was conducted using a “dose matrix” scheme (described in detail below).\n(§2) COMPOUND A (10 mM) was stored in aliquots at −20° C. ANTIBODY A (0.2 mM in 1% BSA) was stored in aliquots at 4° C. Insulin-like Growth Factor-1 (IGF1; R&D System, Cat #291-G1) was reconstituted at 100 ug/mL in sterile Phosphate Buffered Saline (PBS).\n(§3) The KRAS mutant, pancreatic cancer cell lines Miapaca-2 and AsPC-1 were cultured in DMEM medium (ATCC Cat #30-2002) and RPMI-1640 (ATCC Cat #30-2001) plus 10% Fetal Bovine Serum (FBS; Invitrogen Cat #10099-141) as recommended by the supplier. Cells were cultured in T-150 flasks using standard cell culture techniques and split upon reaching 80% confluency. TryPLE Express (Invitrogen #12604-013, no phenal red) was used for all cell dissociation. Cell count and viability were measured using Trypan dye exclusion with a ViCell counter (Beckman-Coulture). Cells were determined to be free of Mycoplasma using a PCR detection method (www.radil.missouri.edu). […]"}, "[2]": {"test_system": "AsPC-1 cells", "test": "Cell proliferation / viability assay (CellTiter-Glo, dose matrix) in AsPC-1 cells", "type": "cell-based", "protocol": "as §1, §2, §3"}}, "data": [{"smiles": "Cn1cnc2c(F)c(Nc3ccc(Br)cc3F)c(C(=O)NOCCO)cc21", "note": "[COMPOUND A, 6-(4-bromo-2-fluorophenylamino)-7-fluoro-3-methyl-3H-benzoimidazole-5-carboxylic acid (2-hydroxyethyoxy)-amide]", "values": [{"measurement": "single agent anti-proliferative activity", "setting": "[1]; Miapaca-2, KRAS mutant pancreatic cancer cell line, 120 hours incubation, presence and absence of IGF1 (100 ng/ml)", "value": "concentration dependent anti-proliferative activity"}, {"measurement": "effect of addition of IGF1 on single agent activity", "setting": "[1]; Miapaca-2, with versus without IGF1", "value": "slightly dampen"}, {"measurement": "single agent anti-proliferative activity", "setting": "[2]; AsPC-1, KRAS mutant pancreatic cancer cell line, 120 hours incubation, presence and absence of IGF1 (100 ng/ml)", "value": "concentration dependent anti-proliferative activity"}, {"measurement": "effect of addition of IGF1 on single agent activity", "setting": "[2]; AsPC-1, with versus without IGF1", "value": "slightly dampen"}]}]}
